Laboratory results taken from ChEMBL document CHEMBL2203057, “Characterisation of [¹¹C]PR04.MZ in Papio anubis baboon: a selective high-affinity radioligand for quantitative imaging of the dopamine transporter” (Bioorg Med Chem Lett, 2012).

Key:
[1] = molecular target: Sodium-dependent dopamine transporter (Rattus norvegicus, UniProt P23977); test: Binding affinity to rat DAT
[2] = molecular target: T1, Sodium-dependent dopamine transporter (Homo sapiens, UniProt Q01959); test: Binding affinity to DAT
T1 sequence (Q01959 whole entry): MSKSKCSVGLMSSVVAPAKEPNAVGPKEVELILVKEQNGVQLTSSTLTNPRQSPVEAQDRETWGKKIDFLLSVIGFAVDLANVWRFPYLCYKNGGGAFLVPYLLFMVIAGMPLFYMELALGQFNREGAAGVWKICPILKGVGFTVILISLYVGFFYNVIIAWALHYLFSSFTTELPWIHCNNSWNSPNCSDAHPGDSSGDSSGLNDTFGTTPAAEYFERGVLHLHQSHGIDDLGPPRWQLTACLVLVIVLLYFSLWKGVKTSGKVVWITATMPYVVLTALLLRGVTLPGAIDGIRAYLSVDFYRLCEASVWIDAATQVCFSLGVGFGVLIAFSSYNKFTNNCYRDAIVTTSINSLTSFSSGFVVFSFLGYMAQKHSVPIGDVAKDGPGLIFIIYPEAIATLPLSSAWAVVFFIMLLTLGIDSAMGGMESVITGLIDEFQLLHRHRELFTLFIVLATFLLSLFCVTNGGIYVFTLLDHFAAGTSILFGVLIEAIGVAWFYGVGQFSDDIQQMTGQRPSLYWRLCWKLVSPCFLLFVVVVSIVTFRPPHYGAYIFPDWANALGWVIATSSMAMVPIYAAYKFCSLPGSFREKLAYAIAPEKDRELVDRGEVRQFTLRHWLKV

[3] = Drug uptake in Papio anubis ventral striatum at 137.4 +/- 66.8 MBq measured 7.5 +/- 0.5 mins post dose by dynamic PET scanning method; type: ADME, tissue-based
[4] = Drug uptake in Papio anubis caudate nucleus at 137.4 +/- 66.8 MBq measured 60 mins post dose co-treated with 1.5 mg/kg DAT ligand GBR12909 by dynamic PET scanning method; type: ADME, organism-based; set-up: dose 1.5 mg/kg; details: in vivo, 1 h
[5] = Drug distribution in Papio anubis caudate nucleus assessed as drug efflux constant at 137.4 +/- 66.8 MBq; type: ADME, tissue-based
[6] = Drug uptake in Papio anubis putamen at 137.4 +/- 66.8 MBq measured 60 mins post dose co-treated with DAT ligand [18F]PR04.MZ by dynamic PET scanning method; type: ADME, tissue-based; details: 1 h
Nucleic Acid = test: Ratio of drug level in midbrain to cerebellum in Papio anubis midbrain at 137.4 +/- 66.8 MBq measured 90 mins post dose; type: ADME; details: 1.5 h
Brain = test: Drug uptake in Papio anubis whole brain assessed per 100 ml at 137.4 +/- 66.8 MBq measured 3 +/- 0.5 mins post dose by dynamic PET scanning method; type: ADME, tissue-based
[7] = Drug distribution in Papio anubis caudate nucleus assessed as drug influx constant at 137.4 +/- 66.8 MBq; type: ADME, tissue-based
[8] = Drug uptake in Papio anubis midbrain at 137.4 +/- 66.8 MBq measured 60 mins post dose co-treated with 1.5 mg/kg DAT ligand GBR12909 by dynamic PET scanning method; type: ADME, organism-based; set-up: dose 1.5 mg/kg; details: in vivo, 1 h
[9] = Drug uptake in Papio anubis mid brain at 137.4 +/- 66.8 MBq measured 45 mins post dose by dynamic PET scanning method; type: ADME, tissue-based, Midbrain; details: 0.75 h
[10] = Drug uptake in Papio anubis midbrain at 137.4 +/- 66.8 MBq measured 60 mins post dose co-treated with DAT ligand [18F]PR04.MZ by dynamic PET scanning method; type: ADME, tissue-based; details: 1 h
[11] = Drug uptake in Papio anubis ventral striatum at 137.4 +/- 66.8 MBq measured 45 mins post dose by dynamic PET scanning method; type: ADME, tissue-based; details: 0.75 h
[12] = Stability in Sprague-Dawley rat brain assessed as intact compound level measured 60 mins post dose by HPLC; type: ADME, tissue-based; details: read-out: Stability
[13] = Drug distribution in Papio anubis midbrain assessed as drug efflux constant at 137.4 +/- 66.8 MBq; type: ADME, tissue-based
[14] = Drug uptake in Papio anubis striatum assessed per 100 ml at 137.4 +/- 66.8 MBq measured 180 mins post dose by dynamic PET scanning method; type: ADME, tissue-based; details: 3 h
[15] = In vivo binding affinity to DAT in Papio anubis putamen assessed as binding potential at 137.4 +/- 66.8 MBq; type: ADME, organism-based
[16] = In vivo binding affinity to DAT in Papio anubis midbrain assessed as binding potential at 137.4 +/- 66.8 MBq; type: ADME, organism-based
[17] = In vivo binding affinity to DAT in Papio anubis caudate nucleus assessed as binding potential at 137.4 +/- 66.8 MBq; type: ADME, organism-based
[18] = Drug distribution in Papio anubis cerebellum assessed as drug efflux constant at 137.4 +/- 66.8 MBq; type: ADME, tissue-based
[19] = Unbound fraction in Papio anubis plasma at 137.4 +/- 66.8 MBq; type: ADME, cell-free
[20] = Drug uptake in Papio anubis mid brain at 137.4 +/- 66.8 MBq measured 90 mins post dose by dynamic PET scanning method; type: ADME, tissue-based, Midbrain; details: 1.5 h
[21] = Drug distribution in Papio anubis cerebellum assessed as drug influx constant at 137.4 +/- 66.8 MBq; type: ADME, tissue-based
[22] = Drug distribution in Papio anubis midbrain assessed as drug influx constant at 137.4 +/- 66.8 MBq; type: ADME, tissue-based
[23] = Drug uptake in Papio anubis caudate nucleus assessed per 100 ml at 137.4 +/- 66.8 MBq measured 25 mins post dose by dynamic PET scanning method; type: ADME, tissue-based
[24] = Drug uptake in Papio anubis putamen assessed per 100 ml at 137.4 +/- 66.8 MBq measured 25 +/- 2.5 mins post dose by dynamic PET scanning method; type: ADME, tissue-based
[25] = Drug distribution in Papio anubis ventral striatum assessed as drug influx constant at 137.4 +/- 66.8 MBq; type: ADME, tissue-based
[26] = Drug distribution in Papio anubis ventral striatum assessed as drug efflux constant at 137.4 +/- 66.8 MBq; type: ADME, tissue-based
[27] = Drug uptake in Papio anubis striatum assessed per 100 ml at 137.4 +/- 66.8 MBq measured 90 mins post dose by dynamic PET scanning method; type: ADME, tissue-based; details: 1.5 h
[28] = Stability in Papio anubis plasma assessed as intact compound level at 137.4 +/- 66.8 MBq measured 30 mins post dose; type: ADME, cell-free; details: read-out: Stability
[29] = Drug uptake in Papio anubis putamen at 137.4 +/- 66.8 MBq measured 60 mins post dose co-treated with 1.5 mg/kg DAT ligand GBR12909 by dynamic PET scanning method; type: ADME, organism-based; set-up: dose 1.5 mg/kg; details: in vivo, 1 h
[30] = Drug uptake in Papio anubis ventral striatum at 137.4 +/- 66.8 MBq measured 90 mins post dose by dynamic PET scanning method; type: ADME, tissue-based; details: 1.5 h
[31] = Drug distribution in Papio anubis putamen assessed as drug efflux constant at 137.4 +/- 66.8 MBq; type: ADME, tissue-based
[32] = Drug uptake in Papio anubis striatum assessed per 100 ml at 137.4 +/- 66.8 MBq measured 25 +/- 2.5 mins post dose by dynamic PET scanning method; type: ADME, tissue-based
[33] = In vivo binding affinity to DAT in Papio anubis cerebellum assessed as binding potential at 137.4 +/- 66.8 MBq; type: ADME, organism-based
[34] = Drug uptake in Papio anubis mid brain at 137.4 +/- 66.8 MBq measured 3.5 mins post dose by dynamic PET scanning method; type: ADME, tissue-based, Midbrain
[35] = Drug distribution in Papio anubis putamen assessed as drug influx constant at 137.4 +/- 66.8 MBq; type: ADME, tissue-based
[36] = In vivo binding affinity to DAT in Papio anubis ventral striatum assessed as binding potential at 137.4 +/- 66.8 MBq; type: ADME, organism-based
[37] = Drug uptake in Papio anubis caudate nucleus at 137.4 +/- 66.8 MBq measured 60 mins post dose co-treated with DAT ligand [18F]PR04.MZ by dynamic PET scanning method; type: ADME, tissue-based; details: 1 h
[38] = molecular target: T1, Sodium-dependent dopamine transporter; test: Displacement of [3H]WIN35,428 from human DAT expressed in HEK293 cells; type: cell-based
[39] = molecular target: T1, Sodium-dependent dopamine transporter; test: Displacement of [3H]DA from human DAT expressed in HEK293 cells; type: cell-based
[40] = molecular target: T2, Sodium-dependent noradrenaline transporter (Homo sapiens, UniProt P23975); test: Displacement of [3H]NE from human NET expressed in HEK293 cells; type: cell-based
T2 sequence (P23975 whole entry): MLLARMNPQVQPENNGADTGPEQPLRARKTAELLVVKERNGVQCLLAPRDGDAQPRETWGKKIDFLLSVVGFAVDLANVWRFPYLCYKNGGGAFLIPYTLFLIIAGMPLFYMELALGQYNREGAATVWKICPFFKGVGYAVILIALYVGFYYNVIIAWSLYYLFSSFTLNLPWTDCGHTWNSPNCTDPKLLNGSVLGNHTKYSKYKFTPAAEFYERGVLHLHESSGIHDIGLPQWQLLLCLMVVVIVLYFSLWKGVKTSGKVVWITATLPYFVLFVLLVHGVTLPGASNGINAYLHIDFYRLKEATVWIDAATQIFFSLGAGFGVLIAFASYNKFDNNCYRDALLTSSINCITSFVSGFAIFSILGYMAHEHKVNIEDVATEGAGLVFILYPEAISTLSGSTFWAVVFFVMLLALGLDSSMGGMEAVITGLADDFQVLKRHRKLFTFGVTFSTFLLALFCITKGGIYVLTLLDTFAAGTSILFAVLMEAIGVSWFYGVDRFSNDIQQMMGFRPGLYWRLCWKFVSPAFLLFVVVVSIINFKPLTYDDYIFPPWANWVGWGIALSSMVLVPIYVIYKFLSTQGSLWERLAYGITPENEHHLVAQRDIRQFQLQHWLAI

[41] = molecular target: T2, Sodium-dependent noradrenaline transporter; test: Displacement of [3H]nisoxetine from human NET expressed in HEK293 cells; type: cell-based
[42] = molecular target: T3, Sodium-dependent serotonin transporter (Homo sapiens, UniProt P31645); test: Displacement of [3H]citalopram from human SERT expressed in HEK293 cells; type: cell-based
T3 sequence (P31645 whole entry): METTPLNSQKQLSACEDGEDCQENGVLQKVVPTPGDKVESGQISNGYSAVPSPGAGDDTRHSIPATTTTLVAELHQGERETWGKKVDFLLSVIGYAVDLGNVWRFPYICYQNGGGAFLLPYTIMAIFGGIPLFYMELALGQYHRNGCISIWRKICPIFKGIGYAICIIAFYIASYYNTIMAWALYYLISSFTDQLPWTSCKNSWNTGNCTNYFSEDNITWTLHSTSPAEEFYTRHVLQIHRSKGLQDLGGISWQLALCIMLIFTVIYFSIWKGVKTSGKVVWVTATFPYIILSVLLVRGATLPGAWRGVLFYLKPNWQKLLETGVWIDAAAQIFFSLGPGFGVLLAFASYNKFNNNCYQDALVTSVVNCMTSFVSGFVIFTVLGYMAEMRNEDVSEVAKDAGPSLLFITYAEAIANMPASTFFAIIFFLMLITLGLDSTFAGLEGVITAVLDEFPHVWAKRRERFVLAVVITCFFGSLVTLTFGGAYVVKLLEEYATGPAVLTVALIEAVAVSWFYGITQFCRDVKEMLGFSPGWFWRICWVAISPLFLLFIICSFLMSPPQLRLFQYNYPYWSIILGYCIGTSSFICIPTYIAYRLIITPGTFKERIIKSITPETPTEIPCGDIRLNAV

[43] = molecular target: T3, Sodium-dependent serotonin transporter; test: Displacement of [3H]5-HT from human SERT expressed in HEK293 cells; type: cell-based
[44] = Lipophilicity, log D of the compound at pH 7.4 by HPLC; type: physicochemical; details: buffer

Chain of Sodium-dependent dopamine transporter (Rattus norvegicus, UniProt P23977) (P23977 whole entry): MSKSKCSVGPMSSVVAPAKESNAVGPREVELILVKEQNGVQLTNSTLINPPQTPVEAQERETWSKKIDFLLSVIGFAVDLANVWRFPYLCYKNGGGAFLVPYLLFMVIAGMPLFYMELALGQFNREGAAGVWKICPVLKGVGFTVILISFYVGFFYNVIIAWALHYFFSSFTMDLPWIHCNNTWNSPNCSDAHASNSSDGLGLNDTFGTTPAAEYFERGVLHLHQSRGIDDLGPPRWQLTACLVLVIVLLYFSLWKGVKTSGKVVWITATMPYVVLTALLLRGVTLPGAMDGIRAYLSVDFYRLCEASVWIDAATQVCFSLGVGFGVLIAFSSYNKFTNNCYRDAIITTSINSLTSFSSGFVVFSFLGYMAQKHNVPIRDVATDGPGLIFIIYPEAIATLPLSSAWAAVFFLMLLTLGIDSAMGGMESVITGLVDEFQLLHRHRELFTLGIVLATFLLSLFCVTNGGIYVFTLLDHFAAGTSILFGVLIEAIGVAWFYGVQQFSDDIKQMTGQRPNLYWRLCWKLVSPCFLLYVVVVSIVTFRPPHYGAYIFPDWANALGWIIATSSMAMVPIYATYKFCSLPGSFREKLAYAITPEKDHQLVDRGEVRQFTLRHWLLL

SMILES: COC(=O)[C@H]1[C@@H](c2ccc(C)cc2)C[C@@H]2CC[C@H]1N2C/C=C/CF
- Kd [1]: 9 nM

SMILES: COC(=O)[C@H]1[C@@H](c2ccc(Cl)cc2)C[C@@H]2CC[C@H]1N2CCF
- Ki [2]: 8 nM

SMILES: COC(=O)[C@H]1[C@@H](c2ccc(C)cc2)C[C@@H]2CC[C@H]1N2C/C=C/I
- Kd [1]: 4 nM

SMILES: Cc1ccc([C@H]2C[C@@H]3CC[C@H]([C@H]2C(=O)O[11CH3])N3CC#CCF)cc1
- Drug uptake [3]: 3.8 %ID/ml
- Drug uptake [4]: Not Active
- Activity [5]: 0.004 min⁻¹
- Drug uptake [6]: Not Active
- Ratio (Nucleic Acid): 4.6
- Drug uptake (Brain): 26.1 %ID
- Activity [7]: 0.017 ml/cm3/min
- Drug uptake [8]: Not Active
- Drug uptake [9]: 1.3 %ID/ml
- Drug uptake [10]: Not Active
- Drug uptake [11]: 3.1 %ID/ml
- remaining at 1 h [12]: > 95%
- Activity [13]: 0.016 min⁻¹
- Drug uptake [14]: 4.8 %ID
- Activity [15]: 36.8 ml/cm3
- Activity [16]: 2.7 ml/cm3
- Activity [17]: 29.3 ml/cm3
- Activity [18]: 0.036 min⁻¹
- Fu [19]: 4.4 %ID
- Drug uptake [20]: 0.8 %ID/ml
- Activity [21]: 0.144 ml/cm3/min
- Activity [22]: 0.064 ml/cm3/min
- Drug uptake [23]: 6.7 %ID
- Drug uptake [24]: 7.6 %ID
- Activity [25]: 0.03 ml/cm3/min
- Activity [26]: 0.0076 min⁻¹
- Drug uptake [27]: 6.7 %ID
- remaining at 0.5 h [28]: 39%
- Drug uptake [29]: Not Active
- Drug uptake [30]: 2.55 %ID/ml
- Activity [31]: 0.004 min⁻¹
- Drug uptake [32]: 7.6 %ID
- Activity [33]: 0 ml/cm3
- Drug uptake [34]: 2.8 %ID/ml
- Activity [35]: 0.015 ml/cm3/min
- Activity [36]: 8.2 ml/cm3
- Drug uptake [37]: Not Active

SMILES: COC(=O)[C@H]1[C@@H](c2ccc(C)cc2)C[C@@H]2CC[C@H]1N2CC#CCF
- IC50 [38]: 1.93 nM
- IC50 [39]: 3.26 nM
- IC50 [40]: 31 nM
- IC50 [41]: 22.5 nM
- IC50 [42]: 108 nM
- IC50 [43]: 240 nM
- logD [44]: 2.7
